# Experimental data as given in US9732105B2, “Targeted nitroxide agents” (University of Pittsburgh—of the Commonwealth System of …, priority 2011, dated 2017).
# Read-outs that look alike come from different tables or passages of the source.
# Columns and labels:
# Ercc1^−/− MEFs = experiment: Cell proliferation / rescue of oxidative-stress-induced senescence in Ercc1−/− MEFs; type: cell-based; settings: for EC50: read-out: Cell proliferation EC50
# Source text: Cell survival in irradiation studies depends on complex biochemical pathways, possibly accounting for the complex correlation of nitroxide structure and radiation mitigation properties. Irradiation-induced cell death results from an accumulation of events that individually are not able to kill the cell, but which become lethal when added together. To develop a firmer basis for studying structural modifications, we assayed the ability to rescue cellular senescence induced by oxidative stress in Ercc1^−/− MEFs as a function of test agents (Table 5).
# Ercc1^−/− MEFs completely lack a critical DNA repair factor, making these cells highly sensitive to genotoxic and oxidative stress. Growth of the Ercc1^−/− MEFs in 20% 02 results in cellular senescence as measured by senescence associated β-gal, γ-H2AX staining and p16 protein levels. The ability to rescue senescence, as measured by an increase in cell number, correlates with the inhibition of oxidative stress.
# [1] = Stability of the free nitroxide on storage; type: physicochemical; settings: after removal of the Boc group; storage at rt
# Source text: Preparation of 3-amino-ABNO (12) was envisioned from the known ketone 21, which was easily accessible in one step from acetonedicarboxylic acid and glutaraldehyde (Scheme 1). Conversion of 21 to oxime 22, followed by reduction to the amine with nickel boride and N-Boc protection provided carbamate 23 in high yield. Removal of the benzyl group by catalytic hydrogenolysis and oxidation of the free secondary amine in the presence of urea-hydrogen peroxide complex (UHP) furnished the Boc-protected nitroxide 24.
# A mixture of Boc-protected amine 3-Boc-amino-ABNO (24, 200 mg, 0.783 mmol) in a 4.0 N solution of HCl in 1,4-dioxane (3.3 mL, 13.2 mmol) was stirred at 0° C. for 1 h and at rt for an additional 2 h. The suspension was then filtered and the solid rinsed with cold dry Et2O, to give 167 mg of an off-white powder. It was dissolved in a minimum of 2.5 N aq. NaOH, and extracted with warm CHCl3 (7×). The combined organic layers were dried (K2CO3), filtered and concentrated in vacuo to afford 110 mg (90%) of a red oil. Upon high vacuum and/or storage at rt for not more than 1 h, the product started to loose the red color characteristic for a nitroxide and became pale yellow. Thus, the title compound is unstable.
# [2] = DPPH radical scavenging assay; type: biochemical; settings: for EC50: EtOH, 100 μM DPPH, 30 min at 37° C.
# Source text: The free radical reduction abilities of the nitroxides and nitroxide-conjugates were benchmarked by the DPPH (2,2-diphenyl-1-picrylhydrazyl) assay.
# [3] = Ascorbic acid electron scavenging assay (disappearance of nitroxide ESR signal); type: biochemical; settings: 0.5 μM nitroxide, nitroxide ESR signal after 8.5 min; for Signal Decrease (%) (a): 35 μM ascorbate; for Signal Decrease (%) (b): 280 μM ascorbate; for Signal Decrease (%) (c): 1.12 mM ascorbate
# Source text: In contrast to the DPPH assay, which mainly addresses the radical scavenging/reducing properties of nitroxides and hydroxylamines, the reaction of nitroxides with ascorbic acid benchmarks their ability to act as oxidizing agents in their conversion to hydroxylamines, which is important to their protective function as electron scavengers in the mitochondrial electron transport chain. The electron acceptor potentials of various nitroxides were thus benchmarked in the presence of low, medium, and high concentrations of the electron donor ascorbate (Table 3). ESR was used to detect the characteristic triplet of the nitroxide vs the doublet of ascorbate radicals (see supplementary information), and the disappearance of the former and appearance of the latter was measured over 8.5 min.
# [4] = test system: 32Dcl3 murine hematopoietic cells; experiment: Irradiation survival assay (colony formation) in 32Dcl3 cells; type: cell-based; settings: for Do, before irradiation / ñ, before irradiation: 10 μM nitroxide for 1 h before irradiation, 0 to 8 Gy; for Do, before irradiation / ñ, before irradiation / Do, after irradiation / ñ, after irradiation: colonies after 7 d; for Do, after irradiation / ñ, after irradiation: cells irradiated, then placed in media containing 10 μM nitroxide; for protection of cells from irradiation (in words): given 1 h before irradiation, shown by increased D0
# Source text: Irradiation survival assays were used to test the ability of selected nitroxide-conjugates to protect against, or mitigate, irradiation-induced damage of 32Dcl3 murine hematopoietic cells.
compound,measurement,setting,value
"COc1cc(/C=C/C(=O)CC(=O)/C=C/c2ccc(O)c(OC)c2)ccc1O [Curcumin, reference compound]",EC50,"Ercc1^−/− MEFs; Ercc1−/− MEFs, 20% O2",1000 nM
same,rescue of senescence (in words),Ercc1^−/− MEFs; used as negative control,only very weak effects
"N[C@@H]1CC2CCC[C@@H](C1)N2[O] [Compound 12, 3-Amino-9-azabicyclo[3.3.1]nonane N-oxyl]",stability (in words),[1],unstable
CC(C)C[C@@H](/C=C/CC(=O)NC1CC(C)(C)N([O])C(C)(C)C1)NC(=O)OC(C)(C)C [JP4-039],DPPH radical scavenging activity (in words),[2],did not exhibit any significant activity
same,Signal Decrease (%) (a),[3],29.7%
same,Signal Decrease (%) (b),[3],81.4%
same,"Do, before irradiation",[4],2.3 ± 0.3 Gy
same,"ñ, before irradiation",[4],1.0 ± 0.1
same,"Do, after irradiation",[4],1.2 ± 0.1 Gy
same,"ñ, after irradiation",[4],3.5 ± 0.2
same,protection of cells from irradiation (in words),[4],able to protect cells from multiple killing events
same,EC50,Ercc1^−/− MEFs,210 ± 15.2 nM
CC(C)C[C@@H](/C=C/[C@H](Cc1ccccc1)C(=O)N1CCC[C@H]1C(=O)N[C@H](C(=O)N[C@@H](CCCNC(=O)OCc1ccccc1)C(=O)NC1CC(C)(C)N([O])C(C)(C)C1)C(C)C)NC(=O)OC(C)(C)C [XJB-5-131],DPPH radical scavenging activity (in words),[2],did not exhibit any significant activity
same,Signal Decrease (%) (a),[3],76.7%
same,Signal Decrease (%) (b),[3],92.4%
same,EC50,"Ercc1^−/− MEFs; Ercc1−/− MEFs, 20% O2",212 ± 5.1 nM
"CC(C)(C)OC(=O)NC1CC2CCCC(C1)N2O (stereo not shown) [Compound 24, 3-(tert-Butoxycarbonylamino)-9-azabicyclo[3.3.1]nonane N-oxyl]",Signal Decrease (%) (a),[3],100%
same,Signal Decrease (%) (b),[3],100%
same,EC50,"Ercc1^−/− MEFs; Ercc1−/− MEFs, 20% O2",40 nM
"O=C1O[C@H]([C@@H](O)CO)C(O)=C1O [Ascorbic acid, reference compound]",EC50,[2],28000 ± 5000 nM
CC(C)C[C@H](NC(=O)OC(C)(C)C)[C@@H]1C[C@H]1CC(=O)NC1CC(C)(C)N([O])C(C)(C)C1 [Compound 2],EC50,"Ercc1^−/− MEFs; Ercc1−/− MEFs, 20% O2",332 nM
"CC1(C)CCCC(C)(C)N1O [TEMPO-H, reference compound]",EC50,[2],79000 ± 2000 nM
CC(C)C[C@@H](/C=C/C(F)(F)C(=O)NC1CC(C)(C)N([O])C(C)(C)C1)NC(=O)OC(C)(C)C [Compound 6],Signal Decrease (%) (a),[3],58.4%
same,Signal Decrease (%) (b),[3],94.1%
same,EC50,Ercc1^−/− MEFs,7.6 ± 1.4 nM
CC(C)C[C@H](NC(=O)OCc1ccccc1)[C@@H]1C[C@H]1CC(=O)NC1CC(C)(C)N([O])C(C)(C)C1 [Compound 4],EC50,"Ercc1^−/− MEFs; Ercc1−/− MEFs, 20% O2",231 nM
CC(C)C[C@@H](/C=C/CC(=O)NC1[C@@H]2CC3C[C@H]1C[C@](C)(C2)N3[O])NC(=O)OC(C)(C)C (stereo partly shown) [Compound 33],"Do, before irradiation",[4],2.6 ± 0.4 Gy
same,"ñ, before irradiation",[4],1.0 ± 0.1
same,"Do, after irradiation",[4],1.3 ± 0.1 Gy
same,"ñ, after irradiation",[4],2.5 ± 0.3
same,protection of cells from irradiation (in words),[4],able to protect cells from multiple killing events
same,EC50,"Ercc1^−/− MEFs; Ercc1−/− MEFs, 20% O2",5.3 ± 0.5 nM
"CC(C)C[C@@H](/C=C/CC(=O)N[C@@H]1CC2CCC[C@@H](C1)N2[O])NC(=O)OC(C)(C)C [Compound 26, (S,E)-N-(9-Azabicyclo[3.3.1]nonan-9-oxo-3-yl)-5-(tert-butoxycarbonylamino)-7-methyloct-3-enamide]",DPPH radical scavenging activity (in words),[2],slightly higher EC50 values than their corresponding nitroxide substructures
same,Signal Decrease (%) (a),[3],100%
same,Signal Decrease (%) (b),[3],100%
same,"Do, before irradiation",[4],3.1 ± 0.6 Gy
same,"ñ, before irradiation",[4],1.0 ± 0.1
same,"Do, after irradiation",[4],1.3 ± 0.1 Gy
same,"ñ, after irradiation",[4],2.7 ± 0.7
same,protection of cells from irradiation (in words),[4],able to protect cells from multiple killing events
same,EC50,"Ercc1^−/− MEFs; Ercc1−/− MEFs, 20% O2",11.8 ± 2.7 nM
CC(C)C[C@@H](/C=C/CC(=O)Nc1ccc2c(c1)C(C)(C)N([O])C2(C)C)NC(=O)OC(C)(C)C [Compound 20],DPPH radical scavenging activity (in words),[2],slightly higher EC50 values than their corresponding nitroxide substructures
same,Signal Decrease (%) (b),[3],15.5%
same,Signal Decrease (%) (c),[3],77.4%
same,"Do, before irradiation",[4],1.8 ± 0.1 Gy
same,"ñ, before irradiation",[4],1.0 ± 0.1
same,"Do, after irradiation",[4],1.4 ± 0.1 Gy
same,"ñ, after irradiation",[4],2.4 ± 0.2
same,protection of cells from irradiation (in words),[4],able to protect cells from multiple killing events
same,EC50,"Ercc1^−/− MEFs; Ercc1−/− MEFs, 20% O2",17.6 ± 1.4 nM
CC(C)C[C@H](/C=C/CC(=O)NC1CC(C)(C)N([O])C(C)(C)C1)NC(=O)OC(C)(C)C [Compound 5],EC50,Ercc1^−/− MEFs,200 nM
6-Boc-amino-1-Me-AZADO [Compound 32],DPPH radical scavenging activity (in words),[2],slightly higher EC50 values than their corresponding nitroxide substructures
same,Signal Decrease (%) (a),[3],100%
same,Signal Decrease (%) (b),[3],100%
same,EC50,"Ercc1^−/− MEFs; Ercc1−/− MEFs, 20% O2",62.2 nM
CC(C)C[C@@H](/C=C/CC(=O)NC1CC(C)(C)N([O])C(C)(C)C1)NP(=O)(c1ccccc1)c1ccccc1 [Compound 3],EC50,Ercc1^−/− MEFs,70.4 nM
"CC1(C)CC(O)CC(C)(C)N1[O] [Compound 9, 4-hydroxy-2,2,6,6-tetramethylpiperidine-N-oxyl, reference compound]",Signal Decrease (%) (a),[3],35.7%
same,Signal Decrease (%) (b),[3],81%
same,Signal Decrease (%) (c),[3],100%
same,EC50,Ercc1^−/− MEFs,229 ± 23.9 nM
5-amino-TMIO [Compound 8],Signal Decrease (%) (c),[3],40.3%
same,EC50,"Ercc1^−/− MEFs; Ercc1−/− MEFs, 20% O2",< 1 nM
CC(C)C[C@@H](/C=C/CC(=O)NC1CC(C)(C)N([O])C(C)(C)C1)NC(=O)OCc1ccccc1 [Compound 1],EC50,"Ercc1^−/− MEFs; Ercc1−/− MEFs, 20% O2",589 nM
CC1(C)c2ccc(N)cc2C(C)(C)N1O [Compound 8-H],EC50,[2],169000 ± 7000 nM
